Assay results published in US20040097420A1, “Proteasome regulation of NF-kB activity” (Harvard College, priority 1994, published 2004).
Non-standard residues stand in square brackets, D forms with d. Residues, ends and D or L forms follow the SMILES beside them. *: point of attachment. Nle = CCCC[C@H](N)C(=O)O; Cbz = O=C(OCc1ccccc1)*

Tests used:
[1] = test system: p60Tth processing by proteasome; experiment: In vitro processing of p60Tth with purified proteasomes / extract; format: biochemical; details: processing reaction with purified 20/26S proteasomes or fraction II and Pr−(II) extract
Procedure: The p60Tth precursor (or p105) was translated in wheat germ extract. The substrate protein was mixed with HeLa cell cytoplasmic extract (S100) in a processing buffer containing 12 mM Tris, pH 7.5, 60 mM KCl, 20 mM creatine phosphate, 3.5 mM MgCl2 and 1 mM ATP. After incubation at 30° C for one hour, the reaction mixtures were subjected to immunoprecipitation with anti-p50 Ab and the proteins were resolved by SDS-PAGE. In the Apyrase treated sample, the p60 was incubated with 10 U of enzyme at 37° C. for 30 minutes to inactivate residual ATP in the wheat germ extract before adding the HeLa cell S100.
Increasing amounts of purified 20/26S proteasomes or a proteasome-enriched fraction from reticulocyte lysate, fraction II, were added alone or were combined with Pr^−(II) extract in a processing reaction (see Example 4). In addition, processing was inhibited by ATPγS, a non-hydrolyzable analogue of ATP that allows ubiquitination but inhibits proteasome function (lanes 3-5).

[2] = molecular target: T1, chymotrypsin-like activity of the proteasome (UniProt Q32KL2); details: slow binding inhibitors; Vinitsky et al., Biochemistry 31:9421-9428 (1992); cited from earlier work
T1 sequence (Q32KL2 1-263): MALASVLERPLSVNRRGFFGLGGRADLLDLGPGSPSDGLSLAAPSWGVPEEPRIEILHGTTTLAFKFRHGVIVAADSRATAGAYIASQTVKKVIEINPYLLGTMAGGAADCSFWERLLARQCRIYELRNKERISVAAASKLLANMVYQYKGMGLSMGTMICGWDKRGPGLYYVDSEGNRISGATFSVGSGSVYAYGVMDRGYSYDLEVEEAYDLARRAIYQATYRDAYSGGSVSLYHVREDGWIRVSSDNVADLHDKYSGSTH

20S Proteasome [3] = molecular target: T2, 20S Proteasome (Oryctolagus cuniculus, UniProt G1T4Q9); experiment: Inhibition of the 20S proteasome (kinetic experiments, Ki); format: biochemical, Rabbit; set-up: Ki 20 S; substrate Suc-LLVY-AMC; details: Rabbit muscle, SDS-activated; substrate Suc-LLVY-AMC
T2 sequence (G1T4Q9 1-263): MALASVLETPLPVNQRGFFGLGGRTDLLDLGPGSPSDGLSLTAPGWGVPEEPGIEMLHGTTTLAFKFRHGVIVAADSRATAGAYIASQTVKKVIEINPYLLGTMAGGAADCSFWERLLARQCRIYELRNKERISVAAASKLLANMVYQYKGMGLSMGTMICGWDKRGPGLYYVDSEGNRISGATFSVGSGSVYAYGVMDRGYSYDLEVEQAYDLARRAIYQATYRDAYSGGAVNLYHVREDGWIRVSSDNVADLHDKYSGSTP
Description: (§1) Tables I-III summarize results from kinetic experiments that measured the inhibition of the 20S and 26S proteasomes, as well as cathepsin B and calpain. In these tables, Ki values are reported, which are dissociation constants for the equilibrium that is established when enzyme and inhibitor interact to form the enzyme:inhibitor complex.
(§2) The substances and assay conditions are briefly summarized in the footnotes to Table I. MG 101 and MG 102, also known as Calpain Inhibitor I and II, were purchased from Calbiochem as catalogue products.
Table V summarizes data for the inhibition of the 20S proteasome by various tripeptide aldehyde inhibitors.

cathepsin B = molecular target: T3, cathepsin B (Bos taurus, UniProt P07688); experiment: Inhibition of cathepsin B (Ki); format: biochemical; details: Bovine spleen; substrate Z-RR-AMC; [DTT] = 2 mM, [EDTA] = 5 mM, pH 5.5, 37° C.; read-out: Ki Cat B
T3 construct: Bovine spleen; Substrate: Z-RR-AMC; from tissue; host or cells: bovine spleen
Description: as §1

26S proteasome = molecular target: T4, 26S proteasome (Oryctolagus cuniculus, UniProt G1T4Q9); experiment: Inhibition of the 26S proteasome (kinetic experiments, Ki); format: biochemical; details: Rabbit muscle; substrate Suc-LLVY-AMC; [Mg:ATP] = 2 mM
T4 sequence (G1T4Q9 1-263): T2 sequence (G1T4Q9 1-263)
Description: as §1, §2

[4] = molecular target: calpain, 80 kD catalytic subunit; experiment: Inhibition of calpain (Ki); format: biochemical; details: Rabbit muscle, substrate Suc-LLVY-AMC, [CaCl2] = 1 mM, [DTT] = 2 mM, pH 7.8, 20° C.
Description: as §1

PC12 cells = details: Tsubuki et al. (1993); cited from earlier work
20S Proteasome [5] = molecular target: T2, 20S Proteasome; experiment: MG 101 inhibition of muscle 20S proteasome (Table IV); format: biochemical; details: enzyme preparation: 20S Proteasome (muscle)
26S Proteasome Complex = molecular target: T5, 26S Proteasome Complex (Oryctolagus cuniculus, UniProt G1T4Q9); experiment: MG 101 inhibition of muscle 26S proteasome complex (Table IV); format: biochemical; details: enzyme preparation: 26S Proteasome Complex (muscle)
T5 sequence (G1T4Q9 1-263): T2 sequence (G1T4Q9 1-263)

20S Proteasome ± SDS = molecular target: T6, 20S Proteasome ± SDS (Oryctolagus cuniculus, UniProt G1T4Q9); experiment: MG 101 inhibition of 20S proteasome with SDS (Table IV); format: biochemical; details: enzyme preparation: 20S Proteasome ± SDS
T6 sequence (G1T4Q9 1-263): T2 sequence (G1T4Q9 1-263)

[6] = molecular target: T7, 20S Proteasome + Muscle 180 kDa Activator (Oryctolagus cuniculus, UniProt G1T4Q9); experiment: MG 101 inhibition of 20S proteasome + muscle 180 kDa activator (Table IV); format: biochemical; details: enzyme preparation: 20S Proteasome + Muscle 180 kDa Activator
T7 sequence (G1T4Q9 1-263): T2 sequence (G1T4Q9 1-263)

SMILES | Ki [2] [µM] | Ki (20S Proteasome [3]) [µM] | Ki (cathepsin B) [µM] | Ki (26S proteasome) [µM] | Ki [4] [µM] | further results
Nc1ncnc2c1ncn2[C@@H]1O[C@H](COP(=O)(O)OP(=O)(O)OP(O)(O)=S)[C@@H](O)[C@H]1O [ATPγS] |  |  |  |  |  | effect on p60Tth processing in vitro [1]: inhibited
CC(C)C[C@H](NC(=O)OCc1ccccc1)C(=O)N[C@@H](CC(C)C)C(=O)N[C@H](C=O)Cc1ccccc1 [MG 110, Z-Leu-Leu-Phe-H] (Cbz-Leu-Leu-Phe-aldehyde) | 0.46 | 0.048 | 0.1 | 0.18 | 0.062 | 
CC(C)C[C@@H](C=O)NC(=O)[C@H](CC(C)C)NC(=O)[C@H](CC(C)C)NC(=O)OCc1ccccc1 [benzyloxycarbonyl(Z)-Leu-Leu-leucinal, Z-L-Leucine-L-Leucine-L-Leucinal] (Cbz-Leu-Leu-Leu-aldehyde) |  |  |  |  |  | optimal concentration initiating neurite outgrowth (PC12 cells): 30 nM
CSCC[C@@H](C=O)NC(=O)[C@H](CC(C)C)NC(=O)[C@H](CC(C)C)NC(C)=O [Ac-LLM-H, N-acetyl-Leu-Leu-methioninal] (Ac-Leu-Leu-Met-aldehyde) | 33 |  |  |  |  | 
CCCC[C@@H](C=O)NC(=O)[C@H](CC(C)C)NC(=O)[C@H](CC(C)C)NC(C)=O [MG 101, Ac-Leu-Leu-Nle-H] (Ac-Leu-Leu-[Nle]-aldehyde) | 5.7 | 0.14 | 0.006 | 1 | 0.005 | Ki (20S Proteasome [5]): 7 µM; Ki (26S Proteasome Complex): 3 µM; Ki (20S Proteasome ± SDS): 0.14 µM; Ki [6]: 0.6 µM
COC(=O)C(=O)[C@H](Cc1ccccc1)NC(=O)[C@H](CC(C)C)NC(=O)[C@H](CC(C)C)NC(=O)OCc1ccccc1 [MG 113, Z-Leu-Leu-Phe-C(O)—OMe] |  | 0.69 | < 0.004 | 1.3 | 0.045 | 
CCOC(=O)C(=O)[C@H](Cc1ccccc1)NC(=O)[C@H](CC(C)C)NC(=O)[C@H](CC(C)C)NC(=O)OCc1ccccc1 [Z-Leu-Leu-Phe-COOEt] | 53 |  |  |  |  | 
